Source: ChEMBL document CHEMBL4706537, “Suramin derivatives play an important role in blocking the interaction between FGF1 and FGFRD2 to inhibit cell proliferation” (Eur J Med Chem, 2020)
Calls of active or inactive are those of the source. The rule behind the calls is not given here.

Key:
[1] = test system: MCF7; assay: Cytotoxicity against FGF1-stimulated human MCF7 cells cultured in serum-starved media assessed as reduction in cell viability incubated for 48 hrs by WST-1 assay; format: functional, cell-based; conditions: MCF7, 48 h
[2] = target: T1, Fibroblast growth factor 1/Fibroblast growth factor receptor 2 (Homo sapiens) (UniProt P05230+P21802); assay: Inhibition of FGF1/FGFR2 D2 domain interaction in human MCF7 cells assessed as decrease in cell proliferation at 0.1 to 1 uM by WST-1 assay; format: cell-based; conditions: dose 0.1-1 µM
[3] = target: T1, Fibroblast growth factor 1/Fibroblast growth factor receptor 2 (Homo sapiens); assay: Inhibition of FGF1/FGFR2 D2 domain interaction in human MCF7 cells assessed as decrease in cell count at 0.1 to 1 uM by WST-1 assay; format: cell-based; conditions: dose 0.1-1 µM

T1 sequence (P05230 whole entry, looked up, the tested form may be a part): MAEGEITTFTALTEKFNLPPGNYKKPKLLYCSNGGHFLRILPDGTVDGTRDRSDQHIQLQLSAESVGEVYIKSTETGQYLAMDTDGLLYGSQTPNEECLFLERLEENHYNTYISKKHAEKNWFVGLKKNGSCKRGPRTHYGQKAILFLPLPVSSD
T1 sequence (P21802 whole entry, looked up, the tested form may be a part): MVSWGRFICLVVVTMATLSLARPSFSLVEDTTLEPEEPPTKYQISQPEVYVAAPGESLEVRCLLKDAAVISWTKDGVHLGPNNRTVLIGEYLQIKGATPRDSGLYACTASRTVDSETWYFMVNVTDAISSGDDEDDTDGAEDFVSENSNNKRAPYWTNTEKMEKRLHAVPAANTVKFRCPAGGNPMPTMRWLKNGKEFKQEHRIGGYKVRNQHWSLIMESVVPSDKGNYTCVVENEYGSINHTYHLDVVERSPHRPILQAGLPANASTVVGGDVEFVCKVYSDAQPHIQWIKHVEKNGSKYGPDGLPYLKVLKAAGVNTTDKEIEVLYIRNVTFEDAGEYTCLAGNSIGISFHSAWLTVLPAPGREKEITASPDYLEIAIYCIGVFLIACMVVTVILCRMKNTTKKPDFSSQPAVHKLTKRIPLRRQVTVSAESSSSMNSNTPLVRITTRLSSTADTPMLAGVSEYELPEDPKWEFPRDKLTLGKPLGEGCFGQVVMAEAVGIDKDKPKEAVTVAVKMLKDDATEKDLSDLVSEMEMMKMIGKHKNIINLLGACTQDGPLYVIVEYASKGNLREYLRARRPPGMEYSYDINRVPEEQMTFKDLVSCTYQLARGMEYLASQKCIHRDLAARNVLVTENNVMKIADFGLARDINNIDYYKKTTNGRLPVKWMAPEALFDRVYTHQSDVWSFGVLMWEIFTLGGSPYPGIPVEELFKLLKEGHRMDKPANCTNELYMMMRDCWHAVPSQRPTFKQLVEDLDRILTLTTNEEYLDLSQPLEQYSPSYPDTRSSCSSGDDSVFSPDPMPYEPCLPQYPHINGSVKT

Row | inhibition [2] | inhibition [3] | SMILES | IC50 [1]
1 | Active | Active | O=C(Nc1ccc(C(=O)Nc2ccc(C(=O)Nc3cccc4cc(S(=O)(=O)O)ccc34)cc2)cc1)Nc1ccc(C(=O)Nc2ccc(C(=O)Nc3cccc4cc(S(=O)(=O)O)ccc34)cc2)cc1 | 619 µM
2 | Active | – | Cc1ccc(C(=O)Nc2ccc(S(=O)(=O)O)c3cc(S(=O)(=O)O)cc(S(=O)(=O)O)c23)cc1NC(=O)c1cccc(NC(=O)Nc2cccc(C(=O)Nc3cc(C(=O)Nc4ccc(S(=O)(=O)O)c5cc(S(=O)(=O)O)cc(S(=O)(=O)O)c45)ccc3C)c2)c1 [SURAMIN] | 154 µM
